What was measured:
[1] = DRUGMATRIX: Calcium Channel Type L, Dihydropyridine radioligand binding (ligand: [3H] Nitrendipine); assay type: cell membranes, Rattus norvegicus, Wistar, Cerebral cortex, Membrane; settings: Not Active = under 50% inhibition at 10 µM
[2] = DRUGMATRIX: Glutamate, AMPA radioligand binding (ligand: [3H] AMPA); assay type: cell membranes, Rattus norvegicus, Wistar, Cerebral cortex, Membrane; settings: Not Active = under 50% inhibition at 10 µM
[3] = target: T1, Nitric oxide synthase, inducible (Mus musculus, UniProt P29477); set-up: species or system Escherichia coli;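 also: inhibition of iNOS enzyme activity measured with L-arginine as substrate; in other assays of this panel Not Active means under 50% inhibition at 10 µM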
T1 sequence (P29477 whole entry): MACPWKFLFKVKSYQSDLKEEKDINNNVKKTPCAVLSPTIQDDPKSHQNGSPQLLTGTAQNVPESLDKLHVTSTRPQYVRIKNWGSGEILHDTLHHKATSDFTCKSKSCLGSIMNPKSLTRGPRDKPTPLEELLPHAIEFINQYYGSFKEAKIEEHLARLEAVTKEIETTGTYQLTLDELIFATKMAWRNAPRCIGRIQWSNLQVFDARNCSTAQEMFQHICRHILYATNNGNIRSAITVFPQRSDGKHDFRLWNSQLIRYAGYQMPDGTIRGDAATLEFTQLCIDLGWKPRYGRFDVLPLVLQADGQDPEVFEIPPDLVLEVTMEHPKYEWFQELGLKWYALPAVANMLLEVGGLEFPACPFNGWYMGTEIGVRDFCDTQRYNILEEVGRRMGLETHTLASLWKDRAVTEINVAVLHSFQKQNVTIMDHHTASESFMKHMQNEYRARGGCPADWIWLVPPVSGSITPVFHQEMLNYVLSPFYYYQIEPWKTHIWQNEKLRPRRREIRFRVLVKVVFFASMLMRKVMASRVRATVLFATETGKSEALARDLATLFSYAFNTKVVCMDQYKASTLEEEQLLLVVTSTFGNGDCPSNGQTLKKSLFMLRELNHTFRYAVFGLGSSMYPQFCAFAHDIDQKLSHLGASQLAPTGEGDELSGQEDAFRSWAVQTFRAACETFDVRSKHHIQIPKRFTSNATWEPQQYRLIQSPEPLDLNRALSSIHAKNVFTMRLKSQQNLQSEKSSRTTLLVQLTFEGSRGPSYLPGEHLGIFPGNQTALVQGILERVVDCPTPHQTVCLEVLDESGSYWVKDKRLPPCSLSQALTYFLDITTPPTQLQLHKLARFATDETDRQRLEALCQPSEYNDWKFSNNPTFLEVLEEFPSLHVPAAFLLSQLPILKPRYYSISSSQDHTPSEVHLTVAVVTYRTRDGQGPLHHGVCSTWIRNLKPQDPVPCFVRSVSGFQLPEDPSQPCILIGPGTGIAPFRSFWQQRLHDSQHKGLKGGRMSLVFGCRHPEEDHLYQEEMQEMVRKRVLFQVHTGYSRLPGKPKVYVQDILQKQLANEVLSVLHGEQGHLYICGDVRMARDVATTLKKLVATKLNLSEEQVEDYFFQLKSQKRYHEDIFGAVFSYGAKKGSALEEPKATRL

[4] = DRUGMATRIX: Calcium Channel Type L, Benzothiazepine radioligand binding (ligand: [3H] Diltiazem); assay type: cell membranes, Rattus norvegicus, Wistar, Brain, Membrane; settings: Not Active = under 50% inhibition at 10 µM
[5] = DRUGMATRIX: Nicotinic Acetylcholine radioligand binding (ligand: [125I] Epibatidine); assay type: cell membranes, Membrane; settings: imr-32; Not Active = under 50% inhibition at 10 µM
Melanocortin receptor 3 = Melanocortin receptor 3 (Homo sapiens, UniProt P41968); assay type: cell membranes, HEK293, Membrane; settings: hek293; also: in other assays of this panel Not Active means under 50% inhibition at 10 µM
Adenosine receptor A2a = Adenosine receptor A2a (Homo sapiens, UniProt P29274); test: DRUGMATRIX: Adenosine A2A radioligand binding (ligand: […]); assay type: cell membranes, HEK293, Membrane; settings: hek293; Not Active = under 50% inhibition at 10 µM
Chain of Adenosine receptor A2a (P29274 whole entry): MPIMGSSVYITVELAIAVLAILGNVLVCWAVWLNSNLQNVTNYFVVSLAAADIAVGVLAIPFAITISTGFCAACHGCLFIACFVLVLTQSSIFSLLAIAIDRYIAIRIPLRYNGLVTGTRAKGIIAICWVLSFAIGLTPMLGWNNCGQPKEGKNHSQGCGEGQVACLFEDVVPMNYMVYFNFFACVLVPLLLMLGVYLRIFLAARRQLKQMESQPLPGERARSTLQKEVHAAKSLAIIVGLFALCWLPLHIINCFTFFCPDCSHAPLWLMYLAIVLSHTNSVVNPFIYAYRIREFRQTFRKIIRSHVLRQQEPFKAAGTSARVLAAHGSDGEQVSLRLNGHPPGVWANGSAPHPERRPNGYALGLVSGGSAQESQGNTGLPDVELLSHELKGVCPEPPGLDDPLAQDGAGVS

Chain of Melanocortin receptor 3 (P41968 whole entry): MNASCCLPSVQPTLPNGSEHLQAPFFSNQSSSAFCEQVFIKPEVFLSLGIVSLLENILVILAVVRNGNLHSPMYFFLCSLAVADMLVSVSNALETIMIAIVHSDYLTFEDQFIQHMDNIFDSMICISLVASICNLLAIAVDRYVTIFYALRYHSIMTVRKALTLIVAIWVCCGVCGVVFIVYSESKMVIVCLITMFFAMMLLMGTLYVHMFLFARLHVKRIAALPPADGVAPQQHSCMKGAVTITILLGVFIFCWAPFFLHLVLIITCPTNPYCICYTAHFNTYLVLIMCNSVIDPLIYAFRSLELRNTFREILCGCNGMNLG

C[C@]12CC[C@@H](O)C[C@@H]1CC[C@@H]1[C@@H]2CC[C@]2(C)C(=O)CC[C@@H]12 [ANDROSTERONE]
Not Active: IC50 [1] | Ki [1] | IC50 [2] | Ki [2] | IC50 [3] | IC50 [4] | Ki [4] | IC50 [5] | Ki [5] | IC50 (Melanocortin receptor 3) | IC50 (Adenosine receptor A2a)

COC(=O)Nc1nc2ccc(Sc3ccccc3)cc2[nH]1 [FENBENDAZOLE]
Not Active: IC50 [1] | Ki [1] | IC50 [2] | Ki [2] | IC50 [3] | IC50 [4] | Ki [4] | IC50 [5] | Ki [5] | IC50 (Melanocortin receptor 3) | IC50 (Adenosine receptor A2a)

C#C[C@]1(O)CC[C@H]2[C@@H]3CCC4=CC(=O)CC[C@@H]4[C@H]3CC[C@@]21C [NORETHINDRONE]
Not Active: IC50 [1] | Ki [1] | IC50 [2] | Ki [2] | IC50 [3] | IC50 [4] | Ki [4] | IC50 [5] | Ki [5] | IC50 (Melanocortin receptor 3) | IC50 (Adenosine receptor A2a)

O=C(Nc1ccc(Cl)c(Cl)c1)c1cc(Cl)cc(Cl)c1O [3,3',4',5-TETRACHLOROSALICYLANILIDE]
Not Active: IC50 [1] | Ki [1] | IC50 [2] | Ki [2] | IC50 [3] | IC50 [4] | Ki [4] | IC50 [5] | Ki [5] | IC50 (Melanocortin receptor 3) | IC50 (Adenosine receptor A2a)

CCN(CCO)CCCC(C)Nc1ccnc2cc(Cl)ccc12 (stereo unspecified) [HYDROXYCHLOROQUINE]
Not Active: IC50 [1] | Ki [1] | IC50 [2] | Ki [2] | IC50 [3] | IC50 [4] | Ki [4] | IC50 [5] | Ki [5] | IC50 (Melanocortin receptor 3) | IC50 (Adenosine receptor A2a)

CC1(COc2ccc(CC3SC(=O)NC3=O)cc2)CCCCC1 (stereo unspecified) [CIGLITAZONE]
Not Active: IC50 [1] | Ki [1] | IC50 [2] | Ki [2] | IC50 [3] | IC50 [4] | Ki [4] | IC50 [5] | Ki [5] | IC50 (Melanocortin receptor 3) | IC50 (Adenosine receptor A2a)

COc1cc([C@@H]2c3cc4c(cc3[C@H](O)[C@H]3COC(=O)[C@H]23)OCO4)cc(OC)c1OC [PODOFILOX]
Not Active: IC50 [1] | Ki [1] | IC50 [2] | Ki [2] | IC50 [3] | IC50 [4] | Ki [4] | IC50 [5] | Ki [5] | IC50 (Melanocortin receptor 3) | IC50 (Adenosine receptor A2a)

COC(=O)C[C@](O)(CCC(C)(C)O)C(=O)O[C@@H]1C(OC)=C[C@]23CCCN2CCc2cc4c(cc2[C@H]13)OCO4 [HARRINGTONINE]
Not Active: IC50 [1] | Ki [1] | IC50 [2] | Ki [2] | IC50 [3] | IC50 [4] | Ki [4] | IC50 [5] | Ki [5] | IC50 (Melanocortin receptor 3) | IC50 (Adenosine receptor A2a)

CCCCCCNC(=O)n1cc(F)c(=O)[nH]c1=O [CARMOFUR]
Not Active: IC50 [1] | Ki [1] | IC50 [2] | Ki [2] | IC50 [3] | IC50 [4] | Ki [4] | IC50 [5] | Ki [5] | IC50 (Melanocortin receptor 3) | IC50 (Adenosine receptor A2a)

O=c1[nH]cnc2c1ncn2[C@H]1CC[C@@H](CO)O1 [DIDANOSINE]
Not Active: IC50 [1] | Ki [1] | IC50 [2] | Ki [2] | IC50 [3] | IC50 [4] | Ki [4] | IC50 [5] | Ki [5] | IC50 (Melanocortin receptor 3) | IC50 (Adenosine receptor A2a)

O=C(O)CO [GLYCOLIC ACID]
Not Active: IC50 [1] | Ki [1] | IC50 [2] | Ki [2] | IC50 [3] | IC50 [4] | Ki [4] | IC50 [5] | Ki [5] | IC50 (Melanocortin receptor 3) | IC50 (Adenosine receptor A2a)

CC(C)Cc1ccc([C@H](C)C(=O)O)cc1 [DEXIBUPROFEN]
Not Active: IC50 [1] | Ki [1] | IC50 [2] | Ki [2] | IC50 [3] | IC50 [4] | Ki [4] | IC50 [5] | Ki [5] | IC50 (Melanocortin receptor 3) | IC50 (Adenosine receptor A2a)

CC(C)(C#N)c1cc(Cn2cncn2)cc(C(C)(C)C#N)c1 [ANASTROZOLE]
Not Active: IC50 [1] | Ki [1] | IC50 [2] | Ki [2] | IC50 [3] | IC50 [4] | Ki [4] | IC50 [5] | Ki [5] | IC50 (Melanocortin receptor 3) | IC50 (Adenosine receptor A2a)

O=C1c2ccccc2C(=O)C1c1ccccc1 [PHENINDIONE]
Not Active: IC50 [1] | Ki [1] | IC50 [2] | Ki [2] | IC50 [3] | IC50 [4] | Ki [4] | IC50 [5] | Ki [5] | IC50 (Melanocortin receptor 3) | IC50 (Adenosine receptor A2a)

NC(=O)NC(=O)Cc1ccccc1 [PHENACEMIDE]
Not Active: IC50 [1] | Ki [1] | IC50 [2] | Ki [2] | IC50 [3] | IC50 [4] | Ki [4] | IC50 [5] | Ki [5] | IC50 (Melanocortin receptor 3) | IC50 (Adenosine receptor A2a)

O=C(NCCN1CCOCC1)c1ccc(Cl)cc1 [MOCLOBEMIDE]
Not Active: IC50 [1] | Ki [1] | IC50 [2] | Ki [2] | IC50 [3] | IC50 [4] | Ki [4] | IC50 [5] | Ki [5] | IC50 (Melanocortin receptor 3) | IC50 (Adenosine receptor A2a)

OC[C@H]1O[C@@H]2O[C@H]3[C@H](O)[C@@H](O)[C@@H](O[C@H]4[C@H](O)[C@@H](O)[C@@H](O[C@H]5[C@H](O)[C@@H](O)[C@@H](O[C@H]6[C@H](O)[C@@H](O)[C@@H](O[C@H]7[C@H](O)[C@@H](O)[C@@H](O[C@H]1[C@H](O)[C@H]2O)O[C@@H]7CO)O[C@@H]6CO)O[C@@H]5CO)O[C@@H]4CO)O[C@@H]3CO [ALFADEX]
Not Active: IC50 [1] | Ki [1] | IC50 [2] | Ki [2] | IC50 [3] | IC50 [4] | Ki [4] | IC50 [5] | Ki [5] | IC50 (Melanocortin receptor 3) | IC50 (Adenosine receptor A2a)

ClC1=C(Cl)[C@]2(Cl)[C@@H]3[C@@H]4C[C@@H]([C@H]5O[C@@H]45)[C@@H]3[C@@]1(Cl)C2(Cl)Cl [DIELDRIN]
Not Active: IC50 [1] | Ki [1] | IC50 [2] | Ki [2] | IC50 [3] | IC50 [4] | Ki [4] | IC50 [5] | Ki [5] | IC50 (Melanocortin receptor 3) | IC50 (Adenosine receptor A2a)

O=c1[nH]c2ccccc2c2ccccc12
Not Active: IC50 [1] | Ki [1] | IC50 [2] | Ki [2] | IC50 [3] | IC50 [4] | Ki [4] | IC50 [5] | Ki [5] | IC50 (Melanocortin receptor 3) | IC50 (Adenosine receptor A2a)

CCC1(c2ccccc2)C(=O)NC(=O)NC1=O [PHENOBARBITAL]
Not Active: IC50 [1] | Ki [1] | IC50 [2] | Ki [2] | IC50 [3] | IC50 [4] | Ki [4] | IC50 [5] | Ki [5] | IC50 (Melanocortin receptor 3) | IC50 (Adenosine receptor A2a)

Nc1ccc(C(=O)O)c(O)c1 [AMINOSALICYLIC ACID]
Not Active: IC50 [1] | Ki [1] | IC50 [2] | Ki [2] | IC50 [3] | IC50 [4] | Ki [4] | IC50 [5] | Ki [5] | IC50 (Melanocortin receptor 3) | IC50 (Adenosine receptor A2a)

Source: ChEMBL document CHEMBL1909046, “DrugMatrix in vitro pharmacology data”
